Source: patent publication US20120029187A1, “HALOALKYLSULFONANILIDE DERIVATIVE” (Nissan Chemical Industries, Ltd., priority 2009, published 2012)

Experiments:
Format in all cases: in vivo
barnyardgrass [1] = assay: Test Example 1: herbicidal effects in preemergence treatment under submerged conditions; settings: dose 2.52 g/a
Method in brief: (§1)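 Weed seeds and 2.5-leaf rice seedlings shared each flooded cup of alluvial soil. Dosing, expressed as g per are, was by pouring water-diluted emulsifiable concentrate onto the surface on sowing day. Mortality was graded 0 to 5 after three weeks' growth.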

bulrush [2] = assay: as above; settings: dose 2.52 g/a
Method in brief: as §1

ducksalad [3] = assay: as above; settings: dose 2.52 g/a
Method in brief: as §1

transplanted rice = assay: Test Example 1: preemergence treatment under submerged conditions, effect on crop; settings: dose 2.52 g/a
Method in brief: as §1

barnyardgrass [4] = assay: Test Example 2: herbicidal effects during the vegetation period under submerged conditions; settings: treatment during the vegetation period under submerged conditions; dose 2.52 g/a
Method in brief: (§2)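 Barnyardgrass, bulrush and ducksalad were co-sown in alluvial soil flooded to 4 cm and grown in a greenhouse at 25 to 30° C. At the 1- or 2-leaf stage, water-diluted emulsifiable concentrates went onto the water surface at set doses (g/a). Herbicidal effect was scored three weeks later on a graded scale.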

bulrush [5] = assay: as above; settings: treatment during the vegetation period under submerged conditions; dose 2.52 g/a
Method in brief: as §2

ducksalad [6] = assay: as above; settings: treatment during the vegetation period under submerged conditions; dose 2.52 g/a
Method in brief: as §2

Italian ryegrass [7] = assay: Test Example 3: herbicidal effects in soil treatment; settings: dose 3.2 g/a
Method in brief: (§3)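 Seeds were sown in sterilized diluvial soil and covered with about 1.5 cm of soil. Compounds, formulated as emulsifiable concentrates and diluted with water, were sprayed evenly over the soil surface at set doses in g/a. Herbicidal effect was scored on a rating scale three weeks later.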

barnyardgrass [8] = assay: as above; settings: dose 3.2 g/a
Method in brief: as §3

common chickweed [9] = assay: as above; settings: dose 3.2 g/a
Method in brief: as §3

common lambsquater [10] = assay: as above; settings: dose 3.2 g/a
Method in brief: as §3

common ragweed [11] = assay: as above; settings: dose 3.2 g/a
Method in brief: as §3

giant foxtail [12] = assay: as above; settings: dose 3.2 g/a
Method in brief: as §3

large crabgrass [13] = assay: as above; settings: dose 3.2 g/a
Method in brief: as §3

posumbu knotweed [14] = assay: as above; settings: dose 3.2 g/a
Method in brief: as §3

redroot pigweed [15] = assay: as above; settings: dose 3.2 g/a
Method in brief: as §3

velvetleaf [16] = assay: as above; settings: dose 3.2 g/a
Method in brief: as §3

water foxtail [17] = assay: as above; settings: dose 3.2 g/a
Method in brief: as §3

Italian ryegrass [18] = assay: Test Example 4: herbicidal effect in foliage treatment; settings: dose 3.2 g/a, three weeks after the application
Method in brief: (§4)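 Visual herbicidal scores on a graded scale were recorded three weeks after foliar application. Compounds went on as diluted emulsifiable concentrates at predetermined g/a to plants grown 14 days in a 25 to 30° C greenhouse.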

barnyardgrass [19] = assay: as above; settings: dose 3.2 g/a, three weeks after the application
Method in brief: as §4

beadstraw = assay: as above; settings: dose 3.2 g/a, three weeks after the application
Method in brief: as §4

common chickweed [20] = assay: as above; settings: dose 3.2 g/a, three weeks after the application
Method in brief: as §4

common lambsquater [21] = assay: as above; settings: dose 3.2 g/a, three weeks after the application
Method in brief: as §4

common ragweed [22] = assay: as above; settings: dose 3.2 g/a, three weeks after the application
Method in brief: as §4

giant foxtail [23] = assay: as above; settings: dose 3.2 g/a, three weeks after the application
Method in brief: as §4

large crabgrass [24] = assay: as above; settings: dose 3.2 g/a, three weeks after the application
Method in brief: as §4

posumbu knotweed [25] = assay: as above; settings: dose 3.2 g/a, three weeks after the application
Method in brief: as §4

redroot pigweed [26] = assay: as above; settings: dose 3.2 g/a, three weeks after the application
Method in brief: as §4

velvetleaf [27] = assay: as above; settings: dose 3.2 g/a, three weeks after the application
Method in brief: as §4

water foxtail [28] = assay: as above; settings: dose 3.2 g/a, three weeks after the application
Method in brief: as §4

Structure (SMILES) | A: barnyardgrass, herbicidal effect (evaluation scale 0-5) (barnyardgrass [1]) | B: bulrush, herbicidal effect (evaluation scale 0-5) (bulrush [2]) | C: ducksalad, herbicidal effect (evaluation scale 0-5) (ducksalad [3]) | a: transplanted rice, effect on crop (evaluation scale 0-5) (transplanted rice) | A: barnyardgrass, herbicidal effect (evaluation scale 0-5) (barnyardgrass [4]) | B: bulrush, herbicidal effect (evaluation scale 0-5) (bulrush [5]) | C: ducksalad, herbicidal effect (evaluation scale 0-5) (ducksalad [6]) | herbicidal effect, H: Italian ryegrass (Italian ryegrass [7]) | herbicidal effect, A: barnyardgrass (barnyardgrass [8]) | herbicidal effect, N: common chickweed (common chickweed [9]) | herbicidal effect, L: common lambsquater (common lambsquater [10]) | herbicidal effect, J: common ragweed (common ragweed [11]) | herbicidal effect, E: giant foxtail (giant foxtail [12]) | herbicidal effect, D: large crabgrass (large crabgrass [13]) | herbicidal effect, M: posumbu knotweed (posumbu knotweed [14]) | herbicidal effect, K: redroot pigweed (redroot pigweed [15]) | herbicidal effect, I: velvetleaf (velvetleaf [16]) | herbicidal effect, G: water foxtail (water foxtail [17]) | H: Italian ryegrass, herbicidal effect (Italian ryegrass [18]) | A: barnyardgrass, herbicidal effect (barnyardgrass [19]) | also measured
CCOC(=O)N(c1ccccc1CN1OCC(C)OC1=O)S(=O)(=O)C(F)(F)F (stereo not drawn) [III-4] | 5 (mortality of 90% or above (nearly complete death)) | 5 (mortality of 90% or above (nearly complete death)) | 5 (mortality of 90% or above (nearly complete death)) | 0 (mortality of less than 5% (almost ineffective)) | 5 (mortality of 90% or above (nearly complete death)) | 5 (mortality of 90% or above (nearly complete death)) | 5 (mortality of 90% or above (nearly complete death)) | 5 (mortality of 90% or above (nearly complete death)) | 5 (mortality of 90% or above (nearly complete death)) | 4 (mortality of at least 70% and less than 90%) | 5 (mortality of 90% or above (nearly complete death)) | 3 (mortality of at least 40% and less than 70%) | 5 (mortality of 90% or above (nearly complete death)) | 5 (mortality of 90% or above (nearly complete death)) | 5 (mortality of 90% or above (nearly complete death)) | 3 (mortality of at least 40% and less than 70%) | 5 (mortality of 90% or above (nearly complete death)) | 5 (mortality of 90% or above (nearly complete death)) | 1 (mortality of at least 5% and less than 20%) | 5 (mortality of 90% or above (nearly complete death)) | O: beadstraw, herbicidal effect (beadstraw): 3 (mortality of at least 40% and less than 70%); N: common chickweed, herbicidal effect (common chickweed [20]): 5 (mortality of 90% or above (nearly complete death)); L: common lambsquater, herbicidal effect (common lambsquater [21]): 1 (mortality of at least 5% and less than 20%); J: common ragweed, herbicidal effect (common ragweed [22]): 4 (mortality of at least 70% and less than 90%); E: giant foxtail, herbicidal effect (giant foxtail [23]): 4 (mortality of at least 70% and less than 90%); D: large crabgrass, herbicidal effect (large crabgrass [24]): 3 (mortality of at least 40% and less than 70%); M: posumbu knotweed, herbicidal effect (posumbu knotweed [25]): 3 (mortality of at least 40% and less than 70%); K: redroot pigweed, herbicidal effect (redroot pigweed [26]): 0 (mortality of less than 5% (almost ineffective)); I: velvetleaf, herbicidal effect (velvetleaf [27]): 3 (mortality of at least 40% and less than 70%); G: water foxtail, herbicidal effect (water foxtail [28]): 5 (mortality of 90% or above (nearly complete death))
CCOC(=O)N(c1ccccc1CN1OCCOC1=O)S(=O)(=O)C(F)(F)F [III-2] | 4 (mortality of at least 70% and less than 90%) | 5 (mortality of 90% or above (nearly complete death)) | 5 (mortality of 90% or above (nearly complete death)) | 0 (mortality of less than 5% (almost ineffective)) | 3 (mortality of at least 40% and less than 70%) | 5 (mortality of 90% or above (nearly complete death)) | 4 (mortality of at least 70% and less than 90%) | 3 (mortality of at least 40% and less than 70%) | 4 (mortality of at least 70% and less than 90%) | 3 (mortality of at least 40% and less than 70%) | 5 (mortality of 90% or above (nearly complete death)) | 0 (mortality of less than 5% (almost ineffective)) | 0 (mortality of less than 5% (almost ineffective)) | 0 (mortality of less than 5% (almost ineffective)) | 4 (mortality of at least 70% and less than 90%) | 0 (mortality of less than 5% (almost ineffective)) | 5 (mortality of 90% or above (nearly complete death)) | 5 (mortality of 90% or above (nearly complete death)) | 3 (mortality of at least 40% and less than 70%) | 4 (mortality of at least 70% and less than 90%) | O: beadstraw, herbicidal effect (beadstraw): 3 (mortality of at least 40% and less than 70%); N: common chickweed, herbicidal effect (common chickweed [20]): 3 (mortality of at least 40% and less than 70%); L: common lambsquater, herbicidal effect (common lambsquater [21]): 3 (mortality of at least 40% and less than 70%); J: common ragweed, herbicidal effect (common ragweed [22]): 4 (mortality of at least 70% and less than 90%); E: giant foxtail, herbicidal effect (giant foxtail [23]): 0 (mortality of less than 5% (almost ineffective)); D: large crabgrass, herbicidal effect (large crabgrass [24]): 0 (mortality of less than 5% (almost ineffective)); M: posumbu knotweed, herbicidal effect (posumbu knotweed [25]): 4 (mortality of at least 70% and less than 90%); K: redroot pigweed, herbicidal effect (redroot pigweed [26]): 3 (mortality of at least 40% and less than 70%); I: velvetleaf, herbicidal effect (velvetleaf [27]): 4 (mortality of at least 70% and less than 90%); G: water foxtail, herbicidal effect (water foxtail [28]): 5 (mortality of 90% or above (nearly complete death))
